Reference: patent US10914728B2, “Bioassay for insulin formulations” (priority 2016, dated 2021)

Assays:
Format in all cases: cell-based
[1] = system: H4IIE cells; assay: Sensitivity assessment: ERK phosphorylation, H4IIE cells, Western blotting; details: insulin for 30 minutes, read-out: Approximate EC50 values, ERK phosphorylation
Method: (§1) For signalling, cells were treated with vehicle or increasing doses of insulin for 30 minutes. Cells were lysed in appropriate buffers and phosphorylation of the insulin receptor, Erk, Akt or Foxo was determined by Western blotting or ELISA, as specified. For mitogenicity, H4IIE cells were incubated with vehicle or increased doses of insulin and cellular growth was measured by detection of thymidine incorporation. […] Uptake and conversion of glucose into lipids were measured after 2 hours by extracting lipids into Microscint-e and measuring radioactivity using a top counter.
(§2) For all methods: to determine EC50 values, data were fitted to a nonlinear 4 parameter regression curve using Graphpad Prism software.

[2] = system: H4IIE cells; assay: Mitogenicity (thymidine incorporation), H4IIE cells; details: radioactively labelled thymidine, read-out: Approximate EC50 values, Mitogenecity (thymidine incorporation)
Method: as §1, §2

[3] = system: primary rat adipocytes; assay: Rat free fat cell lipogenesis; details: Isolated primary rat adipocytes; H3 labelled glucose; 2 hours; read-out: Approximate EC50 values, Rat Free Fat Cell lipogenesis
Method: as §1, §2

EC50 [1]: ~2.3 nM
EC50 [2]: ~1 nM
EC50 [3]: ~0.02 nM
Substance: human insulin
